From patent US6518012B1, “Method for regulating the expression of MHC antigens and CD40 by inhibitors of histone deacetylation” (Health Research, Inc., priority 1999, dated 2003)

Assays:
IAα mRNA = experiment: MHC class II (IAα) mRNA by RT-PCR and real-time PCR in mouse tumor models; assay type: cell-based; details: for fold increase in Ia (Iα): real-time PCR; for class II mRNA activation: titration with different concentrations of TSA for 12 hours, RT-PCR and real-time PCR
Method: To determine the effect of DAIs on HLA-DRα mRNA, cytoplasmic RNA was isolated from untreated and treated human trophoblast cell line JAR using standard techniques (RNeasy System from Qiagen). Standard PCR was performed using primers for DR and CIITA (Murphy et al., 1998, Reprod Dev., Chin et al., 1994, Immunity 1:687-697). Other primers used included human and mouse GAPDH (Clontech) and forward primer 5′-[…]-3′ (SEQ ID NO:25) and reverse primer 5′-[…]-3′ (SEQ ID NO:26) for mouse CIITA. PCR products were amplified with GOLD Taq for 10 min at 95° C., then 95° C. for 30 sec, 60° C. for 60 sec (25-45 cycles), then an extension at 60° C. for 10 min.
In order to obtain more quantitative information on fold changes in DR and CIITA after treatment with the deacetylase inhibitors, a real time fluorescence technique capable of quantitating low copy numbers of transcripts was carried out as follows. Oligonucleotide primers and TaqMan 5′-6-FAM and 3′-TAMRA-labeled probes were synthesized in the RPCI Biopolymer Facility. Primer and probe sequences are listed under Sequence Listing and also in FIG. 9. Sequences were designed using standard software (PrimerExpress software, PE Biosystems) except for human GAPDH.
Realtime PCR reactions contained TaqMan Universal PCR Master Mix (PE Biosystems), primers at 300 nM, and probes at optimal concentrations (150-225 nM depending on gene). Reactions were carried out on an ABI PRISM 7700 Sequence Detection System (PE Biosystems). Cycling conditions were 50° C. for 2 min, 95° C. for 10 min, then 60 cycles of 95° C. for 15 sec, 60° C. for 1 min. PCR samples were run in triplicate. The detection system and quantitative PCR was carried out as described by Williamson et al. (1995, Genet Res. 65:83-93). The threshold cycle number CT corresponded to the cycle number, at which the fluorescent emission reaches 10 standard deviations above the mean fluorescent emission, measured during the early ‘baseline’ cycles of the PCR. The CT values for triplicates were averaged and normalized to GAPDH levels. […] In such cases, in order to calculate a minimum fold change for other samples in the same group, the CT value was arbitrarily set at 40. […] Assuming reverse transcription efficiencies were approximately the same for each sample, relative amounts of mRNA using the comparative CT method. Fold changes in mRNA levels were calculated as 2^x where x=the difference between normalized CT values of the control and experimental samples.
To determine if the effect of DAIs on MHC class II was manifested in other tumors and in different species, the effect of TSA was tested on four commonly used mouse tumor models: the SaI fibrosarcoma, the Colon 26 adenocarcinoma, the J558 plasmacytoma and the P815 mastocytoma. TSA induced class II in all four mouse tumors examined, while the effects of IFNγ were variable (FIG. 4). Data presented for each cell line represents optimal incubation time and concentration of TSA and is compared with 100 U/ml of IFNγ at the same time point. Numbers over bars represents fold changes. […] Colon 26 and J558 that differed strikingly in their reactivity to IFNγ were selected for further evaluation. RT-PCR and real time PCR was used to examine induction of CIITA and IAα by TSA and IFNγ. A20, a constitutively positive B cell line was used as a positive control. The results are shown in FIGS. 5A-D. The numbers over bars represent fold changes. […] Since the classical IFNγ inducible genes IRF-1 and GBP as well as MHC class I mRNA were not induced by IFNγ in J558 (data not shown), this cell line may have a signaling defect in the IFNγ pathway. Unexpectedly however, and unlike either the MC or Colon 26 cells, TSA induced both CIITA (102-fold) and Iα (537-fold) in J558 as shown in FIGS. 5B and 5D.

CD40 mRNA = CD40 mRNA by real-time PCR in SK-N-MC; assay type: cell-based, human; details: MC cells, at 24 hours
CD40 = experiment: Cell surface CD40 by flow cytometry on Colon 26 and J558; assay type: cell-based, mouse
Method: To determine the effect of TSA on cell surface protein expression, the J558 cell line was subjected to flow cytometric analyses as follows. Flow cytometric analyses were conducted by standard methods using cells fixed with 1.0% paraformaldehyde and analyzed on the FACScan (Becton Dickinson). Cell cycle analyses were carried out by flow cytometry with PI staining of genomic DNA. Cells were fixed and permeablized in methanol, treated with RNaseA and analyzed for DNA content by determination of FL3-area on the FACScan. The FL3-area data were analyzed with the ModFit software for determination of the percent cells in each phase of the cell cycle. In some cases, fluorescein isothiocyanate (FITC)-conjugated antibody staining was conducted prior to PI treatment and surface staining was analyzed as a function of cell cycle phase. Apoptosis was analyzed by staining with annexin-V directly conjugated with either FITC or RPE and by sub-G0 analysis of DNA staining. […] Isotype controls were analyzed and, in each case, fell on or below the levels shown for control cells. […] Since all cells were positive for MHC class I expression, the number under the histogram represents -fold change of expression calculated from the mean channel-shift after treatment relative to untreated cells. […]

Molecule	fold increase in Ia (Iα) (IAα mRNA; Colon 26)	expression of class II (IAα mRNA; Colon 26, standard RT-PCR at 35 cycles)	induction of class II mRNA (IAα mRNA; J558, 100 U/ml IFNγ (FIG. 4))	class II mRNA activation (IAα mRNA; J558)	class II mRNA (IAα mRNA; P815, 100 U/ml IFNγ (FIG. 4))	fold-increases in class II mRNA compared with TSA (IAα mRNA; SaI and Colon 26, 100 U/ml IFNγ)	CD40 mRNA fold increase (CD40 mRNA)	mean channel fluorescence difference between control and IFNγ curves, CD40 (CD40; J558, IFNγ 100 U/ml 24 hours, not seen on independent replicates)	Iα (class II) fold induction (IAα mRNA; J558, RT-PCR and real-time PCR (FIGS. 5B and 5D))	induction of class II mRNA (IAα mRNA; all four mouse tumors (SaI, Colon 26, J558, P815), optimal incubation time and concentration of TSA)	expression of CD40 on cell surface (CD40; Colon 26 and J558, flow cytometry)
IFNγ: gamma-interferon, cytokine used as comparator at 100 U/ml	58 fold	induced	failed to induce	failed to activate	only weakly enhanced	nearly equivalent fold-increases	5 fold	1.3			
CC(/C=C/C(=O)NO)=C\[C@@H](C)C(=O)c1ccc(N(C)C)cc1 [TSA, Trichostatin A]	74 fold			induced			12 fold		537 fold	induced	induced expression
